Reference: PubChem BioAssay AID206 (DTP/NCI, 2004)
“And” between values parts separate entries of the source, which are not always exact repeats. Equal entries are not always repeated. Results filed as inconclusive are left out.

Test system: nude mice, HT29 intrarenal xenograft, tumor weight T/C
Assay: NCI In Vivo Anticancer Drug Screen. Data for tumor model HT29;CX-1 Human Adenocarcinoma (MER+) (intrarenal inoculation) in NU/NU Swiss (nude) mice
Conditions: endpoint: mean tumor weight change, higher = larger tumour
Experimental: The antitumor activity of compounds was measured in mice bearing transplantable tumors. Survival or tumor size were measured and the results are expressed as the measurement made in the treated group (T) divided by the measurement made in the vehicle treated control group (C). The tumor model used in this assay is HT29;CX-1 Human Adenocarcinoma (MER+) (intrarenal inoculation) in NU/NU Swiss (nude) mice

[1] = dose: 75.0 mg/kg/injection, schedule: Q04DX004 (sc), vehicle: Klucel (hydroxypropylcellulose) (HPC)
[2] = dose: 150.0 mg/kg/injection, schedule: Q04DX004 (sc), vehicle: Klucel (hydroxypropylcellulose) (HPC)
[3] = dose: 300.0 mg/kg/injection, schedule: Q04DX004 (sc), vehicle: Klucel (hydroxypropylcellulose) (HPC)
[4] = dose: 100.0 mg/kg/injection, schedule: Q01DX010 (sc), vehicle: saline with Tween-80

With CCCCCCCCCCS(=O)CC(CO)NC(=O)/C=C/c1c(C)[nH]c(=O)[nH]c1=O (configuration not stated) the T/C (dose: 9.38 mg/kg/injection, schedule: Q04DX004 (sc), vehicle: distilled water + Tween-80) was 90 % of control, the T/C (dose: 18.75 mg/kg/injection, schedule: Q04DX004 (sc), vehicle: distilled water + Tween-80) was 100 % of control and the T/C (dose: 37.5 mg/kg/injection, schedule: Q04DX004 (sc), vehicle: distilled water + Tween-80) was 80 % of control.

CCN1/C(=C/C=C/C=C/c2sc3ccccc3[n+]2CC)Sc2ccccc21 was tested, and the T/C (dose: 0.38 mg/kg/injection, schedule: Q04DX004 (sc), vehicle: suspension in saline) was 77 % of control, the T/C (dose: 0.75 mg/kg/injection, schedule: Q04DX004 (sc), vehicle: suspension in saline) was 72 % of control and the T/C (dose: 1.5 mg/kg/injection, schedule: Q04DX004 (sc), vehicle: suspension in saline) was 104 % of control. For the same molecule, the T/C (dose: 3.0 mg/kg/injection, schedule: Q04DX004 (sc), vehicle: suspension in saline) was 89 % of control.

In the case of CN(C)c1ccc2c(N(C)C)cc(N(C)C)nc2c1, the T/C [1] is reported as 97 % of control.

For CC12CC(C(=O)O)C3(O)CC(C)(C1)CC(C)(C2)C3 (configuration not stated) (tested in a mixture with another compound), the T/C [2] was 48 % of control, the T/C [3] was 54 % of control and the T/C (dose: 600.0 mg/kg/injection, schedule: Q04DX004 (sc), vehicle: Klucel (hydroxypropylcellulose) (HPC)) was 66 % of control. For the same molecule, the T/C (dose: 1200.0 mg/kg/injection, schedule: Q04DX004 (sc), vehicle: Klucel (hydroxypropylcellulose) (HPC)) was 110 % of control.

In the case of CCOC(=O)[C@]1(Br)CC[C@@]1(Br)C(=O)OCC, the T/C (dose: 400.0 mg/kg/injection, schedule: Q04DX004 (sc), vehicle: saline with Tween-80) is reported as 105 % of control, the T/C (dose: 800.0 mg/kg/injection, schedule: Q04DX004 (sc), vehicle: saline with Tween-80) is reported as 93 % of control and the T/C (dose: 1600.0 mg/kg/injection, schedule: Q04DX004 (sc), vehicle: saline with Tween-80) is reported as 43 % of control.

NC(=O)Oc1cccc(OC(N)=O)c1 was tested, and the T/C (dose: 50.0 mg/kg/injection, schedule: Q04DX004 (sc), vehicle: suspension in saline) was 110 % of control, the T/C (dose: 100.0 mg/kg/injection, schedule: Q04DX004 (sc), vehicle: suspension in saline) was 102 % of control and the T/C (dose: 200.0 mg/kg/injection, schedule: Q04DX004 (sc), vehicle: suspension in saline) was 29 % of control. The T/C (dose: 400.0 mg/kg/injection, schedule: Q04DX004 (sc), vehicle: suspension in saline) was 62 % of control.

For CNC(=O)OCc1c(COC(=O)NC)c(-c2ccccc2)n(C)c1-c1ccccc1, the T/C (dose: 50.0 mg/kg/injection, schedule: Q04DX004 (sc), vehicle: distilled water + Tween-80) was 44 % of control, the T/C (dose: 200.0 mg/kg/injection, schedule: Q04DX004 (sc), vehicle: distilled water + Tween-80) was 68 % of control and the T/C (dose: 400.0 mg/kg/injection, schedule: Q04DX004 (sc), vehicle: distilled water + Tween-80) was 104 % of control.

Cc1cc(N/N=C/c2ccccn2)nc2ccccc12 was tested, and the T/C (dose: 37.5 mg/kg/injection, schedule: Q04DX004 (sc), vehicle: Klucel (hydroxypropylcellulose) (HPC)) was 101 % of control, the T/C [1] was 107 % of control and the T/C [2] was 123 % of control. The T/C [3] was 90 % of control.

O=c1nc(Oc2ccccc2)nc2ncccn12 was tested, and the T/C (dose: 50.0 mg/kg/injection, schedule: Q01DX010 (sc), vehicle: saline with Tween-80) was 312 % of control and the T/C [4] was 156 % of control.

For CC1=C(C)C(=O)O[C@@H]([C@](C)(O)[C@]2(O)CC[C@@]3(O)[C@@H]4C[C@H]5O[C@]56CC=CC(=O)[C@]6(C)[C@H]4CC[C@]23C)C1, the T/C (dose: 450.0 mg/kg/injection, schedule: Q04DX004 (sc), vehicle: suspension in saline) was 86 % of control, the T/C (dose: 900.0 mg/kg/injection, schedule: Q04DX004 (sc), vehicle: suspension in saline) was 76 % of control and the T/C (dose: 1800.0 mg/kg/injection, schedule: Q04DX004 (sc), vehicle: suspension in saline) was 102 % of control.

For N#CN=[N+]([O-])c1ccc(C(=O)O)cc1, the T/C (dose: 45.0 mg/kg/injection, schedule: Q04DX004 (sc), vehicle: Klucel (hydroxypropylcellulose) (HPC)) was 60 % of control.

In the case of OC(CCl)CN1CC[N+]2(CC1)CC[N+]1(CCN(CC(O)CCl)CC1)CC2 (configuration not stated), the T/C (dose: 32.0 mg/kg/injection, schedule: Q01DX010 (sc), vehicle: water) is reported as 245 % of control, the T/C (dose: 64.0 mg/kg/injection, schedule: Q01DX010 (sc), vehicle: water) is reported as 59 % of control and the T/C (dose: 128.0 mg/kg/injection, schedule: Q01DX010 (sc), vehicle: water) is reported as 108 % of control. The T/C (dose: 256.0 mg/kg/injection, schedule: Q01DX010 (sc), vehicle: water) was 35 % of control.

For O=Cc1ccc(C(Cl)(Cl)Cl)cc1, the T/C [4] was 121 % of control and the T/C (dose: 400.0 mg/kg/injection, schedule: Q01DX010 (sc), vehicle: saline with Tween-80) was 107 % of control.

COC(=O)C(N)Cc1ccc(O)c(O)c1 (configuration not stated) was tested, and the T/C (dose: 225.0 mg/kg/injection, schedule: Q04DX004 (sc), vehicle: saline) was 74 % of control, the T/C (dose: 450.0 mg/kg/injection, schedule: Q04DX004 (sc), vehicle: saline) was 104 % of control and the T/C (dose: 900.0 mg/kg/injection, schedule: Q04DX004 (sc), vehicle: saline) was 77 % of control. The T/C (dose: 1800.0 mg/kg/injection, schedule: Q04DX004 (sc), vehicle: saline) was 55 % of control.

In the case of N#C[Se-].c1ccc([Te+](c2ccccc2)c2ccccc2)cc1, the T/C (dose: 12.5 mg/kg/injection, schedule: Q04DX004 (sc), vehicle: Klucel (hydroxypropylcellulose) (HPC)) is reported as 64 % of control and the T/C (dose: 25.0 mg/kg/injection, schedule: Q04DX004 (sc), vehicle: Klucel (hydroxypropylcellulose) (HPC)) is reported as 44 % of control.

In the case of [N-]=[N+]=CC(=O)CCC(=O)C=[N+]=[N-], the T/C (dose: 36.0 mg/kg/injection, schedule: Q04DX004 (sc), vehicle: DMSO) is reported as 85 % of control and 99 % of control and the T/C (dose: 72.0 mg/kg/injection, schedule: Q04DX004 (sc), vehicle: DMSO) is reported as 79 % of control.

In the case of CC(=O)NC(CCc1ccc(Cl)c(Cl)c1)c1cccc(O)c(=O)c1 (configuration not stated), the T/C (dose: 50.0 mg/kg/injection, schedule: Q04DX004 (sc), vehicle: Klucel (hydroxypropylcellulose) (HPC)) is reported as 107 % of control, the T/C (dose: 100.0 mg/kg/injection, schedule: Q04DX004 (sc), vehicle: Klucel (hydroxypropylcellulose) (HPC)) is reported as 124 % of control and the T/C (dose: 200.0 mg/kg/injection, schedule: Q04DX004 (sc), vehicle: Klucel (hydroxypropylcellulose) (HPC)) is reported as 154 % of control.

With CC(=O)c1c(O)c(C)c(O)c2c1OC1=CC(=O)C(C(C)=O)C(=O)C12C (configuration not stated) the T/C (dose: 300.0 mg/kg/injection, schedule: Q04DX004 (sc), vehicle: sodium bicarbonate) was 104 % of control, the T/C (dose: 600.0 mg/kg/injection, schedule: Q04DX004 (sc), vehicle: sodium bicarbonate) was 91 % of control and the T/C (dose: 800.0 mg/kg/injection, schedule: Q01DX010 (sc), vehicle: sodium bicarbonate) was 3 % of control and 9 % of control.

In the case of C[C@]12CC[C@H](O)CC1=CC[C@@H]1[C@@H]2CC[C@]2(C)C(=O)CC[C@@H]12, the T/C (dose: 75.0 mg/kg/injection, schedule: Q04DX004 (sc), vehicle: saline with Tween-80) is reported as 110 % of control, the T/C (dose: 150.0 mg/kg/injection, schedule: Q04DX004 (sc), vehicle: saline with Tween-80) is reported as 180 % of control and the T/C (dose: 300.0 mg/kg/injection, schedule: Q04DX004 (sc), vehicle: saline with Tween-80) is reported as 54 % of control. For the same molecule, the T/C (dose: 600.0 mg/kg/injection, schedule: Q04DX004 (sc), vehicle: saline with Tween-80) was 67 % of control.

With COc1ccc(CC2C(=O)NC(C)C(=O)N(C)C3Cc4ccc(cc4)Oc4cc(ccc4O)CC(C(=O)NC(C)C(=O)NC(C)C(=O)N2C)N(C)C3=O)cc1 (configuration not stated) the T/C (dose: 1.0 mg/kg/injection, schedule: Q04DX004 (sc), vehicle: saline with Tween-80) was 59 % of control, the T/C (dose: 2.0 mg/kg/injection, schedule: Q04DX004 (sc), vehicle: saline with Tween-80) was 64 % of control and the T/C (dose: 4.0 mg/kg/injection, schedule: Q04DX004 (sc), vehicle: saline with Tween-80) was 70 % of control. For the same molecule, the T/C (dose: 8.0 mg/kg/injection, schedule: Q04DX004 (sc), vehicle: saline with Tween-80) was 56 % of control and 68 % of control and the T/C (dose: 16.0 mg/kg/injection, schedule: Q04DX004 (sc), vehicle: saline with Tween-80) was 70 % of control.

CN(CO)c1nc(N(C)CO)nc(N(C)CO)n1 was tested, and the T/C (dose: 25.0 mg/kg/injection, schedule: Q01DX010 (sc), vehicle: saline) was 65 % of control and 81 % of control and the T/C (dose: 100.0 mg/kg/injection, schedule: Q01DX010 (sc), vehicle: saline) was 17 % of control.

C[PH+](C)C.C[PH+](C)C.[Au] was tested, and the T/C (dose: 2.5 mg/kg/injection, schedule: Q04DX004 (sc), vehicle: saline) was 108 % of control and the T/C (dose: 20.0 mg/kg/injection, schedule: Q04DX004 (sc), vehicle: saline) was 42 % of control and 65 % of control.

With [N-]=[N+]=CC(=O)CCC(N)C(=O)O (configuration not stated) the T/C (dose: 0.1 mg/kg/injection, schedule: Q01DX010 (sc), vehicle: saline) was 73 % of control and the T/C (dose: 0.2 mg/kg/injection, schedule: Q01DX010 (sc), vehicle: saline) was 43 % of control.
